Legend:
Assay type in all cases: cell-based, human
[1] = test system: HUES9-derived population (Pdx1+ cells); experiment: High throughput screen for compounds increasing Pdx1+ cells
Experimental: To generate a starting population, HUES cells were cultured on MEF feeder cells until 80-90% confluent, then treated with 25 ng/ml Wnt3a (R&D systems)+100 ng/ml Activin A (R&D systems) in advanced RPMI (A-RPMI, Invitrogen) supplemented with 1×L-Glu and 1×PS for 1 day, and then 100 ng/ml Activin A in A-RPMI supplemented with 1×L-Glu, 1×PS and 0.2% FBS (Invitrogen). Two days later, the media was changed to 50 ng/ml FGF10 (R&D systems)+0.25 μM KAAD-CYC (Calbiochem) in A-RPMI supplemented with 1×L-Glu, 1×PS and 2% FBS and maintained for additional 2 days. Cells were then transferred to 50 ng/ml FGF10+0.25 μM KAAD-CYC+2 μM RA (Sigma) in DMEM supplemented with 1×L-Glu, 1×PS, 1×B27 (Invitrogen) and cultured for an additional 4 days. ILV was obtained from Axxora, KAAD-CYC, TPB, PMA, BISI, Gö 6983, U0126 and PD98059 were obtained from Calbiochem and RA were obtained from Sigma.
For a high throughput screen, the starting material was hESCs (HUES9 cells) that were induced to pancreatic lineage using a slightly modified version of previously published protocols (D'Amour et al., 2006; Jiang et al., 2007), as described in Example 1. After 9 days of stepwise differentiation, a heterogeneous population of cells was generated containing cells that stained strongly, weakly or not at all with a Pdx1 antibody. Any cell that stained with the Pdx1 staining antibody was counted as Pdx1^+ cells regardless of staining intensity. Together, the Pdx1^+ cells comprises 5.1±1.8% of the total cell number.
To carry out the screen, the cells were trypsinized and plated on 804G-coated 384-well plates at 6000 cells/well using chemically defined media (DMEM supplemented with 2 mM L-Glu, 1×PS, 1×B27). After overnight incubation, compounds were screened by adding them to provide a final concentration of 10 μM, 1 μM and 0.1 μM. Four days later, the cells were stained with Pdx1 antibody and the plates were analyzed with Opera high content screening system (PerkinElmer).
The wells in which the percentage of Pdx1^+ cells is higher than present at day 1 and higher than day 5 treated with DMSO were selected as primary hits. Compounds that increase both the number and percentage of Pdx1^+ cells were picked as primary hits. Eleven compounds produced hits. (FIG. 7, Table I in FIG. 9 and formulas in FIG. 10). These eleven compounds were (−)-Indolactam V (FIG. 1c and Compound I in Table 1) boldine (Compound II), rotenone (Compound III), ethopropazine hydrochloride (Compound IV), cedrelone (Compound V), prieurianin (Compound VI), strophanthidin (Compound VII), trimeprazine tartrate (Compound VIII), terconazole (Compound IX), dimethisoquin hydrochloride (Compound X), harmine hydrochloride (Compound XI).
(§1) Cells were fixed with 10% formalin solution (Sigma) for 20 min at room temperature. Immunostaining was carried out with standard protocols. The following primary antibodies were used: goat anti-Pdx1 (1:500; R&D system); rabbit anti-FOXA2 (1:500; Upstate); rabbit anti-HNF6 (1:200; Santa Cruz Biotech); guinea pig anti-insulin (1:1000; Dako); rabbit anti-c-peptide (1:500; Linco); rabbit anti-amylase (1:200, Sigma); goat anti-HNF1β (1:100, Santa Cruz Biotech); and biotinylated DBA (1:400; Vector Lab). Alexa-488-, Alexa-555, and Alexa-647-conjugated donkey antibodies against mouse, rabbit, guinea pig and goat, and Pacific Blue conjugate-streptavidin (Invitrogen) were used at 1:300 dilution.

HUES8-derived population [2] = experiment: In vitro differentiation into pancreatic lineages with bFGF and nicotinamide
Experimental: For growth factor-induced differentiation, the ILV-treated populations were cultured in DMEM/F12 supplemented with 1×N2 (Invitrogen), 2 mg/ml albumin fraction V (Invitrogen), and 10 ng/ml bFGF (Invitrogen) for the first 4 days. 10 mM nicotinamide (Sigma) was then added and maintained for additional 8 days, changing the media every 3 days.
as §1
In mouse embryonic development, Pdx1^+ pancreatic progenitors contribute to exocrine, endocrine and duct cells (Gu et al., 2003). The developmental potential of Pdx1^+ cells produced by ILV treatment was tested in two assays. First, following published protocols for in vitro differentiation (Jiang et al., 2007), cells were cultured with bFGF and nicotinamide for an additional 12 days. Using this in vitro differentiation assay, four different induced cell types were tested, including HUES8-derived population before ILV treatment (no treatment), the HUES8-derived population after 4 day treatment with DMSO, 300 nM ILV or 300 nM ILV+50 ng/ml FGF10, respectively. After 12 days culture with bFGF and nicotinamide, these four populations of cells were stained with the antibodies against insulin, c-peptide, amylase or DBA (a duct marker).

HUES8-derived population [3] = experiment: Ki67 staining for proliferation of Pdx1+ cells; details: 300 nM ILV, 4 days
Experimental: as §1
The results provided above are consistent with (1) ILV promotion of the proliferation or replication of the few pancreatic progenitors present in the starting population and with (2) differentiation induction of definitive endoderm by the compound. To distinguish between these possibilities, a HUES8-derived population was treated with 300 nM ILV for 4 days and analyzed for proliferation by staining with the antibody against Ki67 (marker for proliferating cells).

HUES8 cells = experiment: Differentiation of HUES8 cells to definitive endoderm (Sox17 immunostaining); details: 300 nM ILV, 3 days, in the presence or absence of Wnt3a/Activin
Experimental: ILV was next tested at different steps of the hESC differentiation process (see FIG. 1a). ILV was tested on the differentiation of HUES8 cells to definitive endoderm population, which was assessed by immunostaining with Sox17 antibody.
Secondly, ILV was examined on the definitive endoderm population containing 70% Sox17^+ cells derived from HUES8 by Wnt3a/Activin treatment (D'Amour et al., 2006). […] Thus, ILV functions by inducing pancreatic specification of hESC-derived definitive endoderm population.

[4] = 4 day treatment (300 nM ILV, 50 ng/ml FGF10), then 12 days bFGF and nicotinamide

Substance: (−)-Indolactam V [ILV]
- primary hits (increase both the number and percentage of Pdx1+ cells) ([1]; HUES9-derived cells, 10 μM, 1 μM and 0.1 μM, four days): hits
- effective concentration ([1]; HUES9-derived cells, primary screen): ~1 µM
- percentage of Pdx1+ cells ([1]; HUES9-derived population, 1 μM ILV for 4 days (day 5)): 10.9±0.9%
- DBA+ duct cells (HUES8-derived population [2]; [4]): 3.6±1.3%
- amylase+ exocrine cells (HUES8-derived population [2]; [4]): 22.7±5.3%
- insulin+ cells (HUES8-derived population [2]; [4]): 0.5±0.2%
- contribution to somatostatin+ cells (HUES8-derived population [2]; compared to no treatment or DMSO, immunostaining and qRT-PCR): stronger ability to contribute
- Pdx1+ cells expressing Ki67 (HUES8-derived population [3]): no Pdx1^+ cells expressing Ki67
- differentiation to definitive endoderm (Sox17) versus DMSO control (HUES8 cells): no detectable difference

Reference: patent US9157062B2, “Compositions and methods for promoting the generation of PDX1+ pancreatic cells” (President and Fellows of Harvard College, priority 2008, dated 2015)
